Measured values reported in patent US20030032580A1, “Use of agonists or antagonists of the 5-HT7 receptor to treat disorders of the bladder” (Synaptic Pharmaceutical Corporation, priority 1999, published 2003).

How the values were obtained:
human 5-HT7 receptor = target: T1, human 5-HT7 receptor (Homo sapiens, UniProt P34969); test: Radioligand binding at cloned 5-HT7 receptor, this study ([3H]serotonin competition); details: reference: this study, read-out: pK1 (converted)
T1 construct: host or cells: LM(tk-) mouse fibroblasts, clone L-5HT-4B
T1 sequence (P34969 1-445 isoform P34969-2): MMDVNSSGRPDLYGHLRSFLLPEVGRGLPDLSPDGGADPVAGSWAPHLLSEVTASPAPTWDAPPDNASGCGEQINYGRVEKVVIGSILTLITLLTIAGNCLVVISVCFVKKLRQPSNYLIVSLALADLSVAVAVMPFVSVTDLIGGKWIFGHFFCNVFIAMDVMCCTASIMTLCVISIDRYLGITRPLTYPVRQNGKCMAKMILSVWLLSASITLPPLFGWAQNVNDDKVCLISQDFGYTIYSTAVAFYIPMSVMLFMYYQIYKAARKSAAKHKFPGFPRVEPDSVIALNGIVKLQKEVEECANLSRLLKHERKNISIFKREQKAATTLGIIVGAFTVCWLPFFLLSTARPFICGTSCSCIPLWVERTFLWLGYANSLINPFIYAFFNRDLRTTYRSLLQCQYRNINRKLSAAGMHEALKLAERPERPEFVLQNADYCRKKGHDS
Protocol: The binding of a test compound to a receptor of interest was generally evaluated by competitive binding assays using membrane preparations derived from cells which expressed the receptor. First, conditions were determined which allowed measurement of the specific binding of a compound known to bind to the receptor. Then, the binding of the known compound to the receptor in membrane preparations was evaluated in the presence of several different concentrations of the test compound.
Human Serotonin Receptors. 5-HT1Dα, 5-HT1Dβ, 5-HT1E, 5-HT1F, and 5-HT7 Receptors: The cell lysates of LM(tk-) clonal cell line stably transfected with the genes encoding each of these 5-HT receptor-subtypes were prepared as described above. The cell line for the 5-HT1Dα receptor, designated as Ltk-8-30-84, was deposited on Apr. 17, 1990, and accorded ATCC Accession No. CRL 10421. The cell for the 5-HT1Dβ receptor, designated as Ltk-11, was deposited on Apr. 17, 1990, and accorded ATCC Accession No. CRL 10422. The cell line for the […] receptor, designated 5-HT1E-7, was deposited on Nov. 6, 1991, and accorded ATCC Accession No. CRL 10913. The cell line for the 5-HT1F receptor, designated L-5-HT1F, was deposited on Dec. 27, 1991, and accorded ATCC Accession No. ATCC 10957. […] Nonspecific binding was determined in the presence of 10 μM serotonin. […]

[1] = target: cloned rat 5-HT2B receptor (Rattus norvegicus, UniProt P30994); details: cited from earlier work
Sequence of cloned rat 5-HT2B receptor (P30994 whole entry): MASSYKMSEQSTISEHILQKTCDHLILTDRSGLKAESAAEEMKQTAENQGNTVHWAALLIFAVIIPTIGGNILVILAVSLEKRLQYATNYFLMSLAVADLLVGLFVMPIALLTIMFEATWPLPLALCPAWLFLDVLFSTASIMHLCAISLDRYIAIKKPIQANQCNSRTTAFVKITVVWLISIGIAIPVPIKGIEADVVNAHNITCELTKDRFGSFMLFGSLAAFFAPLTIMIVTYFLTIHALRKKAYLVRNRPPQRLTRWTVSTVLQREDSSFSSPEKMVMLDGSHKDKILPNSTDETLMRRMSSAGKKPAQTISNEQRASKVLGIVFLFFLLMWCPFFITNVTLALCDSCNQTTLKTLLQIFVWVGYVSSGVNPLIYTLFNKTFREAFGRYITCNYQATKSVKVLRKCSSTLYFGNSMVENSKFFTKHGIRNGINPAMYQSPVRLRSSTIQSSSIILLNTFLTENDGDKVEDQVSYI

5-HT1E = 5-HT1E (Homo sapiens, UniProt P28566); details: Adham et al., 1993; cited from earlier work
Sequence of 5-HT1E (P28566 whole entry): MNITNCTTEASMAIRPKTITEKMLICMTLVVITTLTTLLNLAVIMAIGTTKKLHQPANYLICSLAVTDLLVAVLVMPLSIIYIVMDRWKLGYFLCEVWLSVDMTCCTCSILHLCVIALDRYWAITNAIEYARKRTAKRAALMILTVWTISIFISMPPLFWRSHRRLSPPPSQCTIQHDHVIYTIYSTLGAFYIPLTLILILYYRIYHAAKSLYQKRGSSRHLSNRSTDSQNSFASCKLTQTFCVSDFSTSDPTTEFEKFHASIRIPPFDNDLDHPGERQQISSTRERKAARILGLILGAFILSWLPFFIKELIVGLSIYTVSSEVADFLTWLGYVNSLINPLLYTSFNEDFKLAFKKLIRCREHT

[2] = target: T2, 5-HT7 receptor (first phase of the concentration-effect curve to 5-CT in the rat bladder) (Rattus norvegicus, UniProt P32305); test: Electrically stimulated rat bladder strips: first (high potency) phase of the concentration-effect curve to 5-CT; format: cell-based; details: bladder pKB versus published value
T2 construct: from tissue; host or cells: rat urinary bladder detrusor strips
T2 sequence (P32305 whole entry): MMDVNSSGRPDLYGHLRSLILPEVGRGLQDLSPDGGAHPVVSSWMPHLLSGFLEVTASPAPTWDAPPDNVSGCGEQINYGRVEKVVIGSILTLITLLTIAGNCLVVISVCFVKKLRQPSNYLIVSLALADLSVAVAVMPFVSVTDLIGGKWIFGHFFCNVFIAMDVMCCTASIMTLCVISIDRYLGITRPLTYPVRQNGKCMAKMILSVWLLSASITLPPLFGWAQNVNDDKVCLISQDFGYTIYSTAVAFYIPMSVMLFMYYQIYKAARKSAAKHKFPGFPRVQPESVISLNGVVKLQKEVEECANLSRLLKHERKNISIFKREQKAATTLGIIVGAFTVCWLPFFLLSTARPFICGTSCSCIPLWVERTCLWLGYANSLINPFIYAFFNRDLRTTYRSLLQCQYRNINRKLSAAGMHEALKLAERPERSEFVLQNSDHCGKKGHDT

[3] = target: T3, 5-HT2B receptor (second phase of the concentration-effect curve to 5-CT in the rat bladder) (Rattus norvegicus, UniProt P30994); test: Electrically stimulated rat bladder strips: second (low potency) phase of the concentration-effect curve to 5-CT; format: cell-based
T3 construct: from tissue; host or cells: rat urinary bladder detrusor strips
T3 sequence (P30994 whole entry): as the sequence (P30994 whole entry) above

Ki (human 5-HT7 receptor): 2510 nM
first-phase affinity lower than affinity for the 5-HT2B receptor subtype [2]: more than 10 fold
second-phase affinity greater than affinity for 5-HT1B, 5-HT1E, 5-HT2A and 5-HT2C subtypes ([3]; bladder pKB versus published values): at least 10 fold
Kb ([3]; inhibition of the second phase of the concentration-effect curve to 5-CT in the rat bladder, read-out: pKB (converted)): 15.8 nM
Structure (SMILES): COC(=O)[C@H]1[C@H]2C[C@H]3c4[nH]c5ccccc5c4CCN3C[C@H]2CC[C@@H]1O [rauwolscine]
pKB, 5-HT2B ([1]; Wainscott et al., 1993): 7.5
pK1 ([1]; cloned rat 5-HT2B receptor, reference 1 (Wainscott et al., 1993)): 7.5-7.6
pKB, 5-HT1E (5-HT1E): 5.5
